# Patent US20050197338A1, “Substituted pyrazole urea compounds for the treatment of inflammation” (priority 2003, published 2005)
# Structures can show the parent of a compound that is named as a salt.
# Molecular target: T1, human IKK-2 (rhIKK-2 homodimer) (Homo sapiens, UniProt O14920)
# T1 construct: FLAG (DYKDDDDKD) (C); made in house; host or cells: insect cells (baculovirus, pFastBac)
# T1 sequence (O14920 1-756): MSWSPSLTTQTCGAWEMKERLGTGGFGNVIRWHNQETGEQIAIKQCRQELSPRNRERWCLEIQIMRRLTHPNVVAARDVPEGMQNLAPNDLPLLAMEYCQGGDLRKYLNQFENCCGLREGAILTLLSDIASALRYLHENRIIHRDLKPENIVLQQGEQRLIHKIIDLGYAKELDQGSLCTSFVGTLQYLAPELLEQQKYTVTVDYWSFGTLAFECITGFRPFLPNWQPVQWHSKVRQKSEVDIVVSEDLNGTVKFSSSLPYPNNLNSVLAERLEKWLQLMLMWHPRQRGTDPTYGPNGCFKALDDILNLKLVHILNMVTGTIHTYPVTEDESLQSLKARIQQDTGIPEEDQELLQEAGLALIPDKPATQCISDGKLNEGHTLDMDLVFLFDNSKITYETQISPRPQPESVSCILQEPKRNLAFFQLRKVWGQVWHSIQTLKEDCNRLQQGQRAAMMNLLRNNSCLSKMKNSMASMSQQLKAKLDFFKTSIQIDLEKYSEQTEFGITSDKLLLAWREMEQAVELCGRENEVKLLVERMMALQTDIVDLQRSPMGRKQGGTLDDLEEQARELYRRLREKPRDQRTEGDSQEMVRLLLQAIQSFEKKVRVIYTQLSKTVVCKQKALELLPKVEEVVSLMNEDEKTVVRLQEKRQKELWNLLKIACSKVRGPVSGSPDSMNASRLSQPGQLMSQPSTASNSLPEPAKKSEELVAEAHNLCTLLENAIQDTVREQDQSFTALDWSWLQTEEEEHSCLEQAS
# Assay: IKK-2 Resin Enzyme Assay (Human IKK-2 Enzyme Assay)
# Assay type: biochemical
# Conditions: human IKK-2, resin enzyme assay; read-out: IC50 (μM) hIKK-2
# Procedure, shortened: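 C-terminally FLAG-tagged human IKK-2 homodimer, baculovirus-expressed in insect cells and anti-FLAG purified. Reaction mix: 5 μM biotinylated IκBα peptide (Ser32/Ser36 region), 1 μM ATP with [γ-33P]ATP, 2 mM MgCl2, 2 mM MnCl2, 10 mM NaF, 1 mM DTT, 25 mM HEPES pH 7.6. Incubated 30 min at 25 °C; IC50 derived.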
row,SMILES,IC50 [µM]
1,"CCCCc1ccc(-c2cccc(-n3cc(NC(N)=O)c(C(N)=O)n3)c2)cc1 [Example 364, 4-[(aminocarbonyl)amino]-1-(4′-butyl-1,1′-biphenyl-3-yl)-1H-pyrazole-3-carboxamide]",16.2
2,"COc1ccc(-n2cc(NC(N)=O)c(C(N)=O)n2)cc1 [Example 10, 4-[(aminocarbonyl)amino]-1-(4-methoxyphenyl)-1H-pyrazole-3-carboxamide trifluoroacetate]",2.91
3,"CCOC(=O)c1cccc(-c2ccc(-n3cc(NC(N)=O)c(C(N)=O)n3)cc2)c1 [Example 144, ethyl 4′-{3-(aminocarbonyl)-4-[(aminocarbonyl)amino]-1H-pyrazol-1-yl}-1,1′-biphenyl-3-carboxylate]",5.05
4,"COc1ccc(Cc2cccc(-n3cc(NC(N)=O)c(C(N)=O)n3)c2)cc1OC [Example 11, 4-[(aminocarbonyl)amino]-1-[3-(3,4-dimethoxybenzyl)phenyl]-1H-pyrazole-3-carboxamide]",6.36
5,"Cc1cc(-n2cc(NC(N)=O)c(C(N)=O)n2)ccc1-c1cccc(OCC#N)c1 [Example 243, 1-(3′-Cyanomethoxy-2-methyl-biphenyl-4-yl)-4-ureido-1H-pyrazole-3-carboxylic acid amide]",8.11
6,"NC(=O)Nc1cn(-c2ccc([S+]([O-])c3ccccc3F)cc2)nc1C(N)=O (stereo not shown) [Example 193, 1-(1-(4-(2-fluorophenylsulfinyl)phenyl)-3-carbamoyl-1H-pyrazol-4-yl)urea]",3.75
7,"CCOc1cccc(-c2cccc(-n3cc(NC(N)=O)c(C(N)=O)n3)c2)c1 [Example 354, 4-[(aminocarbonyl)amino]-1-(3′-ethoxy-1,1′-biphenyl-3-yl)-1H-pyrazole-3-carboxamide]",> 20
8,"COc1ccc(Cl)cc1-c1ccc(-n2cc(NC(N)=O)c(C(N)=O)n2)cc1 [Example 129, 4-[(aminocarbonyl)amino]-1-(5′-chloro-2′-methoxy-1,1′-biphenyl-4-yl)-1H-pyrazole-3-carboxamide]",1.82
9,CC(C)c1cccc(-c2ccc(-n3cc(C(N)=O)c(NC(N)=O)n3)cc2)c1 [Example 116],11
10,"NC(=O)Nc1cn(-c2cccc(-c3cccc4ncccc34)c2)nc1C(N)=O [Example 60, 4-[(aminocarbonyl)amino]-1-(3-quinolin-5-ylphenyl)-1H-pyrazole-3-carboxamide]",3.75
11,"CN(Cc1ccc(F)cc1)C(=O)c1ccc(-c2ccc(-n3cc(NC(N)=O)c(C(N)=O)n3)cc2)cc1F [Example 158, 4-[(aminocarbonyl)amino]-1-(3′-fluoro-4′-{[(4-fluorobenzyl)(methyl)amino]carbonyl}-1,1′-biphenyl-4-yl)-1H-pyrazole-3-carboxamide]",4.04
12,"N#CCCNC(=O)c1ccc(-c2cccc(-n3cc(NC(N)=O)c(C(N)=O)n3)c2)cc1 [Example 84, 4-[(aminocarbonyl)amino]-1-(4′-{[(2-cyanoethyl)amino]carbonyl}-1,1′-biphenyl-3-yl)-1H-pyrazole-3-carboxamide]",2.06
13,"NC(=O)Nc1cn(-c2ccc(-c3cccnc3)cc2)nc1C(N)=O [Example 21, 4-[(aminocarbonyl)amino]-1-(4-pyridin-3-ylphenyl)-1H-pyrazole-3-carboxamide]",2.86
14,"CCCNC(=O)c1ccc(-c2ccc(-n3cc(NC(N)=O)c(C(N)=O)n3)cc2)cc1 [Example 146, 4-[(aminocarbonyl)amino]-1-{4′-[(propylamino)carbonyl]-1,1′-biphenyl-4-yl}-1H-pyrazole-3-carboxamide]",6.28
15,"NC(=O)NC(=O)Nc1cn(-c2ccc(Br)c(C(F)(F)F)c2)nc1C(N)=O [Example 2, 4-({[(aminocarbonyl)amino]carbonyl}amino)-1-[4-bromo-3-(trifluoromethyl)phenyl]-1H-pyrazole-3-carboxamide]",10.7
16,CCCCCc1ccc(-c2ccc(-n3cc(C(N)=O)c(NC(N)=O)n3)cc2)cc1 [Example 138],> 20
17,"NC(=O)Nc1cn(-c2cccc(-c3ccc(F)c(F)c3)c2)nc1C(N)=O [Example 349, 4-[(aminocarbonyl)amino]-1-(3′,4′-difluoro-1,1′-biphenyl-3-yl)-1H-pyrazole-3-carboxamide]",> 20
18,"NC(=O)Nc1cn(-c2cc(Cl)ccc2F)nc1C(N)=O [Example 246, 1-(5-chloro-2-fluoro-phenyl)-4-ureido-1H-pyrazole-3-carboxylic acid amide]",3.3
19,"NC(=O)Nc1cn(-c2ccc(Sc3ccc(Cl)cc3)cc2)nc1C(N)=O [Example 290, 1-(1-(4-(4-chlorophenylthio)phenyl)-3-carbamoyl-1H-pyrazol-4-yl)urea]",4.56
20,"COC(=O)c1ccc(-n2cc(NC(N)=O)c(C(N)=O)n2)cc1 [Example 184, methyl 4-{3-(aminocarbonyl)-4-[(aminocarbonyl)amino]-1H-pyrazol-1-yl}benzoate]",5.49
21,"CCOc1cc(-n2cc(NC(N)=O)c(C(N)=O)n2)ccc1-c1ccccc1O [Example 232, 4-[(aminocarbonyl)amino]-1-(2-ethoxy-2′-hydroxy-1,1′-biphenyl-4-yl)-1H-pyrazole-3-carboxamide]",10.3

# Now those with a lower IC50, led by results:
row,IC50 [µM],SMILES
1,1.43,"NC(=O)Nc1cn(-c2ccc(C(=O)N3CCOCC3)cc2)nc1C(N)=O [Example 9, 4-[(aminocarbonyl)amino]-1-[4-(morpholin-4-yl-carbonyl)phenyl]-1H-pyrazole-3-carboxamide]"
2,1.29,"CNC(=O)c1cccc(-c2cccc(-n3cc(NC(N)=O)c(C(N)=O)n3)c2)c1 [Example 83, 4-[(aminocarbonyl)amino]-1-{3′-[(methylamino)carbonyl]-1,1′-biphenyl-3-yl}-1H-pyrazole-3-carboxamide]"
3,0.844,"NC(=O)Nc1cn(-c2ccc(F)cc2)nc1C(N)=O [Example 212, 4-[(aminocarbonyl)amino]-1-(4-fluorophenyl)-1H-pyrazole-3-carboxamide]"
4,0.48,"CCCNC(=O)c1ccc(-c2cccc(-n3cc(NC(N)=O)c(C(N)=O)n3)c2)cc1 [Example 75, 4-[(aminocarbonyl)amino]-1-{4′-[(propylamino)carbonyl]-1,1′-biphenyl-3-yl}-1H-pyrazole-3-carboxamide]"
5,1.35,"CCNC(=O)COc1ccc(F)cc1-c1ccc(-n2cc(NC(N)=O)c(C(N)=O)n2)cc1 [Example 257, 4-[(aminocarbonyl)amino]-1-{5′-fluoro-2′-[2-(ethylamino)-2-oxoethoxy]-1,1′-biphenyl-4-yl}-1H-pyrazole-3-carboxamide]"
6,0.351,"NC(=O)Nc1cn(-c2ccc(-c3ccncc3)cc2)nc1C(N)=O [Example 40, 4-[(aminocarbonyl)amino]-1-(4-pyridin-4-ylphenyl)-1H-pyrazole-3-carboxamide]"
7,0.656,"Cc1cc(-n2cc(NC(N)=O)c(C(N)=O)n2)ccc1-c1ccc(F)cc1OCC(N)=O [Example 296, 1-(2′-carbamoylmethoxy-4′-fluoro-2-methyl-biphenyl-4-yl)-4-ureido-1H-pyrazole-3-carboxylic acid amide]"
8,0.88,"Cc1noc(C)c1-c1cccc(-n2cc(NC(N)=O)c(C(N)=O)n2)c1 [Example 70, 4-[(aminocarbonyl)amino]-1-[3-(3,5-dimethylisoxazol-4-yl)phenyl]-1H-pyrazole-3-carboxamide]"
9,0.123,"NC(=O)Nc1cn(-c2ccc(S(N)(=O)=O)cc2)nc1C(N)=O [Example 301, 4-[(aminocarbonyl)amino]-1-[4-(aminosulfonyl)phenyl]-1H-pyrazole-3-carboxamide]"
10,0.382,"NC(=O)Nc1cn(-c2ccc(Cl)cc2)nc1C(N)=O [Example 214, 4-[(aminocarbonyl)amino]-1-(4-chlorophenyl)-1H-pyrazole-3-carboxamide]"
11,0.718,"NC(=O)Nc1cn(-c2ccc(Sc3ccc(F)cc3)cc2)nc1C(N)=O [Example 196, 1-(1-(4-(4-fluorophenylthio)phenyl)-3-carbamoyl-1H-pyrazol-4-yl)urea]"
12,0.32,"COc1cccc(CNC(=O)c2ccc(-c3ccc(-n4cc(NC(N)=O)c(C(N)=O)n4)cc3)cc2F)c1 [Example 153, 4-[(aminocarbonyl)amino]-1-(3′-fluoro-4′-{[(3-methoxybenzyl)amino]carbonyl}-1,1′-biphenyl-4-yl)-1H-pyrazole-3-carboxamide]"
13,0.762,"NC(=O)Nc1cn(-c2ccc(-c3cc(F)ccc3OCc3ncco3)cc2)nc1C(N)=O [Example 255, 4-[(aminocarbonyl)amino]-1-[5′-fluoro-2′-(1,3-oxazol-2-ylmethoxy)-1,1′-biphenyl-4-yl]-1H-pyrazole-3-carboxamide]"
